Assay results from US12409206B2, “Use of cyclosporine analogues for treating fibrosis” (Hepion Pharmaceuticals, Inc., priority 2020, dated 2025).

Columns and labels:
hepatitis C = settings: preclinical studies; cited from earlier work
[1] = tested on: human precision cut IPF lung slices; assay: Gene expression (RT-PCR) in precision cut IPF lung slices in culture; assay type: cell-based; settings: CRV431 applied at 5 μM; Day 6 of culture after 4 days of treatment; β actin reference
Protocol: This example describes a study conducted with precision cut lung slices. Precision cut slices from explanted lung tissue from a patient with biopsy-confirmed, idiopathic pulmonary fibrosis (IPF) were cultured for 6 days. Treatments were applied to 6 replicate slices per treatment on Day 2 of culture and replaced daily on Days 3, 4, and 5 of culture.
For generating the results of gene expression shown in FIG. 6B, RNA was isolated from 6 pooled lung slices per treatment on Day 6 of culture following 4 days of drug or vehicle treatment and evaluated by reverse transcription-polymerase chain reaction (RT-PCR) for 6 markers of inflammation and fibrosis: MCP-1, IL-6, TGFβ TIMP1, collagen 1α1, and α-smooth muscle actin (αSMA). β actin was used as a reference gene to calculate relative levels of each target gene RNA.

[2] = tested on: human precision cut liver slices (PCLS); assay: PCLS biomarker secretion (ELISA); assay type: cell-based
Protocol: PCLS were obtained from 5 human donors who underwent resection of liver cancer. Replicate slices were collected from healthy margins of the resections and cultured for 4 or 6 days depending on the experimental protocol. In the Nonstimulation Protocol slices were cultured for 6 days and treated for the entire period with DMSO vehicle or 5 μM CRV431. In the Stimulation Protocol slices were rested for 1 day and then administered the cytokines, TGFβ and PDGF-BB, for 3 days to stimulate inflammation and fibrosis. DMSO vehicle, CRV431 (1 and 5 μM), Alk5i (10 μM), obeticholic acid (5 μM), elafibranor (5 μM), resmetirom ([…]), and Aramchol (5 μM) were administered individually as drug treatments in the Stimulation Protocol concurrent with TGFβ+PDGF-BB. Culture medium treatments were replaced daily.
Four types of evaluations were conducted on the PCLS: (a) secretion of inflammation and fibrosis biomarkers into the culture medium, (b) histological staining and quantitation of Sirius red as a measure of tissue fibrosis, (c) gene expression of inflammation and fibrosis biomarkers by RT-PCR, and (d) RNA sequencing (RNA-Seq) of the complete transcriptome. Each of the four types of evaluation is described below: • (a) Biomarker secretion. Spent culture medium was collected daily from duplicate slices for each treatment. ELISAs were used to quantify secretion of monocyte chemoattractant protein (MCP-1), interleukin-6 (IL-6), tissue inhibitor of metalloproteinase-1 (TIMP1), hyaluronic acid, fibronectin, and collagen 1α1. For each donor the mean level of biomarker secretion in each treatment group was expressed as a percentage change relative to DMSO vehicle, the percentages averaged for all donors, and finally the mean daily percentage change calculated from all days of evaluation. […] Sirius red was quantified morphometrically in the histological sections as the percentage area with Sirius red staining in 10 sections from each treatment. In the Nonstimulation Protocol the quantity of Sirius red staining was expressed relative to the vehicle group. In the Stimulation Protocol the quantity of Sirius red staining was expressed relative to nonstimulated PCLS (0%) and TGFβ+PDGF-BB-stimulated+vehicle PCLS (100%). […] RNA was isolated from duplicate liver slices per treatment at the end of the experiments and evaluated by RT-PCR for 5 markers of inflammation and fibrosis: MCP-1, IL-6, TIMP1, αSMA, and collagen 1α1. β actin was used as a reference gene to calculate relative levels of each target gene RNA. […] RNA sequencing of the complete transcriptome (30 million reads per sample) was conducted on vehicle and 5 μM CRV431 treatment groups from 3 donors both from the Nonstimulation and Stimulation Protocols. […]

[3] = tested on: human precision cut liver slices (PCLS); assay: PCLS Sirius red tissue fibrosis, Nonstimulation Protocol; assay type: cell-based; settings: 6 days of culture in the absence of exogenous TGFβ+PDGF-BB; most CRV431-treated slices
Protocol: (§1) PCLS were obtained from 5 human donors who underwent resection of liver cancer. Replicate slices were collected from healthy margins of the resections and cultured for 4 or 6 days depending on the experimental protocol. In the Nonstimulation Protocol slices were cultured for 6 days and treated for the entire period with DMSO vehicle or 5 μM CRV431. In the Stimulation Protocol slices were rested for 1 day and then administered the cytokines, TGFβ and PDGF-BB, for 3 days to stimulate inflammation and fibrosis. […]
(§2) Four types of evaluations were conducted on the PCLS: (a) secretion of inflammation and fibrosis biomarkers into the culture medium, (b) histological staining and quantitation of Sirius red as a measure of tissue fibrosis, (c) gene expression of inflammation and fibrosis biomarkers by RT-PCR, and (d) RNA sequencing (RNA-Seq) of the complete transcriptome. […] ELISAs were used to quantify secretion of monocyte chemoattractant protein (MCP-1), interleukin-6 (IL-6), tissue inhibitor of metalloproteinase-1 (TIMP1), hyaluronic acid, fibronectin, and collagen 1α1. For each donor the mean level of biomarker secretion in each treatment group was expressed as a percentage change relative to DMSO vehicle, the percentages averaged for all donors, and finally the mean daily percentage change calculated from all days of evaluation. […]

[4] = tested on: human precision cut liver slices (PCLS); assay: PCLS Sirius red tissue fibrosis, Stimulation Protocol (TGFβ+PDGF-BB); assay type: cell-based; settings: compared with other NASH drug candidates
Protocol: as §1, §2

HIV = settings: preclinical studies; cited from earlier work
[5] = tested on: five different types of fibroblasts; assay: Cell viability, summary over five types of fibroblasts; assay type: cell-based, Human; settings: at clinically relevant concentrations
[6] = tested on: human precision cut liver slices (PCLS); assay: PCLS RNA-Seq, general statements (protocol not stated); assay type: cell-based
Protocol: as §1, §2

[7] = tested on: Human adult dermal fibroblasts; assay: Procollagen and fibronectin ELISA of spent medium, dermal fibroblast culture; assay type: cell-based; settings: medium from Day 1-2 of treatment, in the absence or presence of 10 ng/ml EGF or 0.4 ng/ml TGFβ
Protocol: Human adult dermal fibroblasts (Lonza Bioscience, Cat. #CC-2511) were cultured in 96-well plates. Treatments were applied in triplicate wells (applied 100 ul treatments per well) for 1 day, then re-applied for one additional day. Cells were near confluence at the start of treatments. […] Spent culture medium collected from Day 1-2 of treatment was assayed for procollagen and fibronectin by enzyme-linked immunosorbent assays (ELISA) (Procollagen ELISA antibody pair (ab216064) and fibronectin ELISA antibody pair (ab222262) from Abcam). Procollagen and fibronectin were not detected in medium not applied to cells. Procollagen and fibronectin levels in the medium are represented by means±SD (bars) from 3 replicate wells (open circles). […].

[8] = tested on: Human renal mesangial cells; assay: Cell viability analysis, renal mesangial cell culture; assay type: cell-based; settings: end of 4 days of treatment
Protocol: Human renal mesangial cells (ScienCell, Cat. #4200 (SC)) were cultured in 96-well plates. Treatments were applied in triplicate wells (applied 100 ul treatments per well) for 2 days, then re-applied for an additional 2 days. Cells were near confluence at the start of treatments. […] Spent culture medium collected from Day 2-4 of treatment was assayed for procollagen and fibronectin by enzyme-linked immunosorbent assays (ELISA) (Procollagen ELISA antibody pair (ab216064) and fibronectin ELISA antibody pair (ab222262) from Abcam). Procollagen and fibronectin were not detected in medium not applied to cells. Procollagen and fibronectin levels in the medium are represented by means±SD (bars) from 3 replicate wells (open circles).

Question: For CC[C@@H]1NC(=O)[C@H]([C@H](O)[C@H](C)CCCCCCNC(C)=O)N(C)C(=O)[C@H](C(C)C)N(C)C(=O)[C@H](CC(C)C)N(C)C(=O)[C@H](CC(C)C)N(C)C(=O)[C@@H](C)NC(=O)[C@H](C)NC(=O)[C@H](CC(C)C)N(C)C(=O)[C@H](C(C)C)NC(=O)[C@H](CC(C)C)N(C)C(=O)[C@@H](C)N(C)C1=O [CRV431], which anti-viral activity (hepatitis C) is on record?
Answer: The anti-viral activity was “shows anti-viral activity”.

Question: And the “gene expression of all markers (MCP-1, IL-6, TGFβ, TIMP1, collagen 1α1, αSMA)” value [1]?
Answer: The value was “decreased”.

Question: What about the “mean daily secretion of all markers” value ([2]; CRV431 applied at 5 μM, markers MCP-1, IL-6, TIMP1, hyaluronic acid, fibronectin, collagen 1α1) of the same compound?
Answer: The value was “decreased”.

Question: What about the “secretion of collagen1α1, fibronectin, hyaluronic acid, IL-6, and MCP-1” value ([2]; ELISA) of the same compound?
Answer: Its value is “reduced secretion”.

Question: What about the “tissue fibrosis vs vehicle-treated slices” value [3] of the same compound?
Answer: Its value is “less fibrosis than vehicle-treated slices”.

Question: And the “preventing TGFβ+PDGF-BB-induced tissue fibrosis” value [4]?
Answer: Its value is “most effective of five NASH drug candidates”.

Question: And the anti-viral activity (HIV)?
Answer: The anti-viral activity was “shows anti-viral activity”.

Question: What about the cell viability [5] of the same compound?
Answer: The cell viability was “without causing any reduction in cell viability”.

Question: What about the “expression of many fibrosis-related genes (more than 10 collagen genes, collagen hydroxylases and oxidases, ACTA2, VEGF, TIMPs)” value [6] of the same compound?
Answer: The value was “decreased expression”.

Question: What about the “abundance of fibronectin in the medium” value [7] of the same compound?
Answer: Its value is “dose-dependently decreased”.

Question: And the “abundance of procollagen in the medium” value [7]?
Answer: Its value is “dose-dependently decreased”.

Question: And the cell viability [8]?
Answer: The cell viability was “none of the CRV431 treatments affected cell viability”.
